Among the data in patent publication US7902199B2, “Heterocyclic substituted piperazine compounds with CXCR3 antagonist activity” (Schering Corporation, priority 2006, dated 2011) are Ki values, retold here.

The structures appear in SMILES notation.

The target of this assay is T1, Human CXCR3 (N-delta 4) (Homo sapiens, UniProt P49682).
T1 construct: CD8 leader (N); Flag; expressed in transfected cells; membrane preparation
T1 sequence (P49682 5-368 limits assumed): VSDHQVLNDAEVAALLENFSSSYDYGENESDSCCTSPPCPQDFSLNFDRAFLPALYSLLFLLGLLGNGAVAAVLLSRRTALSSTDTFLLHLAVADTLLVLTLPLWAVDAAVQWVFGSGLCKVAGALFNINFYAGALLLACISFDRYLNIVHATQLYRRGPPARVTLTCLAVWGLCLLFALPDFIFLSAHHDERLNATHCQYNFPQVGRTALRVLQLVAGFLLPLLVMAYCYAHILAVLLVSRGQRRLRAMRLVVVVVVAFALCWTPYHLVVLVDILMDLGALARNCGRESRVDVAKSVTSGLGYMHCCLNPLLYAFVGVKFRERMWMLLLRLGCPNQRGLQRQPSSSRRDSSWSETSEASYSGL
In words: Human CXCR3 (N-delta 4) Scintillation Proximity Assay (SPA), [125I] IP-10 binding. The settings on record: rating; 25 pM [125I] IP-10, Ba/F3-hCXCR3 (N-delta 4) membranes, 3 hr room temperature. The source says:
The inventive compounds can readily be evaluated to determine activity at The CXCR3 receptors by known methods, such as, for example, Development of Human CXCR3 (N-delta 4) Binding Assay.
Cloning and Expression of Human CXCR3 (N-delta 4):
The DNA encoding human CXCR3 was cloned by PCR using human genomic DNA (Promega, Madison, Wis.) as a template. The PCR primers were designed based on the published sequence of human orphan receptor GPR9 (1) with incorporated restriction sites, a Kozak consensus sequence, CD8 leader and Flag tag. The PCR product was subcloned into the mammalian expression vector pME18neo, a derivative of the SR-alpha expression vector (designated as pME18Sneo-hCXCR3 (N-delta 4).
IL-3-dependent mouse pro-B cells Ba/F3 were transfected by electroporation in 0.4 ml Dulbecco's PBS containing 4×10^6 cells with 20 μg of pME18Sneo-hCXCR3 (N-delta 4) plasmid DNA. Cells were pulsed at 400 Volts, 100 OHMs, 960 μFd. The transfected cells were under selection with 1 mg/ml G418 (Life Technologies, Gaithersburg, Md.). G418-resistant Ba/F3 clones were screened for CXCR3 expression by specific binding of [^125I] IP-10 (NEN Life Science Products, Boston, Mass.).
Preparation of Ba/F3-hCXCR3 (N-delta 4) Membranes
Ba/F3 cells expressing human CXCR3 (N-delta 4) were pelleted and resuspended in the lysis buffer containing 10 mM HEPES, pH 7.5 and Complete® protease inhibitors (1 tablet per 100 ml) (Boehringer Mannheim, Indianapolis, Ind.) at a cell density of 20×10^6 cells per ml. After 5 minutes incubation on ice, cells were transferred to 4639 cell disruption bomb (Parr Instrument, Moline, Ill.) and applied with 1,500 psi of nitrogen for 30 minutes on ice. Large cellular debris was removed by centrifugation at 1,000×g. Cell membrane in the supernatant was sedimented at 100,000×g. The membrane was resuspended in the lysis buffer supplemented with 10% sucrose and stored at −80° C. Total protein concentration of the membrane was determined by BCA method from Pierce (Rockford, Ill.).
Human CXCR3 (N-delta 4) Scintillation Proximity Assay (SPA)
For each assay point, 2 μg of membrane was preincubated for 1 hr with 300 μg wheat germ agglutinin (WGA) coated SPA beads (Amersham, Arlington Heights, Ill.) in the binding buffer (50 mM HEPES, 1 mM CaCl2, 5 mM MgCl2, 125 mM NaCl, 0.002% NaN3, 1.0% BSA) at room temperature. The beads were spun down, washed once, resuspended in the binding buffer and transferred to a 96-well Isoplate (Wallac, Gaithersburg, Md.). 25 pM of [^125I] IP-10 with tested compounds in a series of titration were added to start the reaction. After 3 hr reaction at room temperature, the amount of [^125I] IP-10 bound to the SPA beads was determined with a Wallac 1450 Microbeta counter.
The Ki values for the various example compounds of the present invention are given in the afore-mentioned Table 1. From these values, it would be apparent to the skilled artisan that the compounds of the invention have excellent utility CXCR3 antagonists.
`CC[C@H]1CN(c2ccc(C(N)=O)nc2C)CCN1C1CCN(Cc2ccc(Cl)cc2)CC1` [Compound 3] came in with a Ki of less than 25 nM.
For `CC[C@H]1CN(c2ccc(C(=O)NC3CC3)nc2C)CCN1C1CCN(C(=O)c2ccc(F)c(F)c2)CC1` [Compound 8] the value was less than 25 nM; for `CC[C@H]1CN(c2cnc(C(N)=O)cc2C)CCN1C1CCN(C(=O)c2ccc(Cl)cc2)CC1` [Compound 14], greater than 100 nM.
In turn, `CC[C@H]1CN(c2ccc(C(=O)NC3CC3)nc2C)CCN1C1CCN(Cc2ccc(OC(F)(F)F)cc2)CC1` [Compound 2] came in with a Ki of less than 25 nM.
For `CC[C@H]1CN(c2ccc(C(=O)NC3CC3)nc2Cl)[C@H](C)CN1C1CCN(C(=O)c2ccc(Cl)cc2)CC1` [Compound 7] the value was less than 25 nM.
Take `CC[C@H]1CN(c2ccc(C(=O)NC3CC3)nc2C)CCN1C1CCN(C(=O)c2ccc(Cl)c(F)c2)CC1` [Compound 5]: the Ki was less than 25 nM.
Regarding `CC[C@H]1CN(c2cnc(C#N)cc2C)CCN1C1CCN(C(=O)c2ccc(Cl)cc2)CC1` [Compound 12], the Ki was greater than 100 nM.
For `CC[C@H]1CN(c2ccc(C(=O)NC3CC3)nc2C(F)(F)F)[C@H](C)CN1C1CCN(C(=O)c2ccc(Cl)cc2)CC1` [Compound 11] the value was 25 to 100 nM; for `CC[C@H]1CN(c2ccc(C(N)=O)nc2C)CCN1C1CCN(C(=O)c2ccc(Cl)cc2)CC1` [Compound 10], less than 25 nM.
Next, `CC[C@H]1CN(c2ccc(C(N)=O)nc2C)CCN1C1CCN(Cc2ccc(OC(F)(F)F)cc2)CC1` [Compound 4]: less than 25 nM; `CCNC(=O)c1ccc(N2CCN(C3CCN(Cc4ccc(Cl)cc4)CC3)[C@@H](CC)C2)c(C)n1` [Compound 1]: less than 25 nM.
`CC[C@H]1CN(c2ccc(CO)nc2C)CCN1C1CCN(C(=O)c2ccc(Cl)cc2)CC1` [Compound 13] returned a Ki greater than 100 nM.
Next, `CC[C@H]1CN(c2ccc(C(=O)NC3CC3)nc2C)[C@H](C)CN1C1CCN(C(=O)c2ccc(Cl)c(F)c2)CC1` [Compound 9]: less than 25 nM.
`CC[C@H]1CN(c2ccc(C(=O)NC3CC3)nc2C)CCN1C1CCN(C(=O)c2ccc(Cl)cc2)CC1` [Compound 6] registered a Ki of less than 25 nM.
